Measured values as given in ChEMBL document CHEMBL3774308, “KATching-Up on Small Molecule Modulators of Lysine Acetyltransferases” (J Med Chem, 2016).

Assays:
[1] = target: T1, Histone acetyltransferase p300 (Homo sapiens, UniProt Q09472); test: Inhibition of human recombinant p300 catalytic domain (1284 to 1673 residues) expressed in Escherichia coli using H4-8 peptide substrate by radiometric assay in presence of [3H]acetyl-CoA
[2] = target: T1, Histone acetyltransferase p300; test: Inhibition of human recombinant C-terminal GST-tagged p300 (1195 to 1673 residues) expressed in competent Escherichia coli DH5alpha cells using histone substrate after 30 mins by scintillation counting method in presence of [3H]acetyl-CoA
[3] = target: T2, Histone acetyltransferase KAT5 (Homo sapiens, UniProt Q92993); test: Inhibition of recombinant TIP60 (unknown origin) using histone H4 peptide substrate assessed as reduction in NADH formation by spectrophotometric analysis
Target sequence in this assay (Q92993 whole entry): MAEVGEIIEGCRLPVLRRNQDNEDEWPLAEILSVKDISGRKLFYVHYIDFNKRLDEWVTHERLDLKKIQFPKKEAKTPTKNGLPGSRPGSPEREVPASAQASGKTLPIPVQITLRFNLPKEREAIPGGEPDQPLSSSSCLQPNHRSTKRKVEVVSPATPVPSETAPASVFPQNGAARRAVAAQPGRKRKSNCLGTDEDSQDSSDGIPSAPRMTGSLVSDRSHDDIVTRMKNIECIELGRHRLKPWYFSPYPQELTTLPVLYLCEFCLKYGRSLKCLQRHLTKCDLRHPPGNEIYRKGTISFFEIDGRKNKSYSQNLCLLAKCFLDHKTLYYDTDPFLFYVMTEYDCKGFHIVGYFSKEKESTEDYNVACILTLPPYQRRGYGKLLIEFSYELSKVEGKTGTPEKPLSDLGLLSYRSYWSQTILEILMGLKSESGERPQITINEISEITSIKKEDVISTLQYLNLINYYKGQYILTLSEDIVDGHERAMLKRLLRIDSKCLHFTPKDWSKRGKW

[4] = target: T1, Histone acetyltransferase p300; test: Inhibition of recombinant GST-tagged p300 (unknown origin) using histone H4 peptide substrate assessed as reduction in NADH formation by spectrophotometric analysis
[5] = target: T3, CREB-binding protein (Homo sapiens, UniProt Q92793); test: Inhibition of recombinant GST-tagged CBP (unknown origin) using histone H4 peptide substrate assessed as reduction in NADH formation by spectrophotometric analysis
[6] = target: T4, Histone acetyltransferase KAT2B (Homo sapiens, UniProt Q92831); test: Inhibition of recombinant PCAF (unknown origin) using histone H4 peptide substrate assessed as reduction in NADH formation by spectrophotometric analysis
Target sequence in this assay (Q92831 whole entry): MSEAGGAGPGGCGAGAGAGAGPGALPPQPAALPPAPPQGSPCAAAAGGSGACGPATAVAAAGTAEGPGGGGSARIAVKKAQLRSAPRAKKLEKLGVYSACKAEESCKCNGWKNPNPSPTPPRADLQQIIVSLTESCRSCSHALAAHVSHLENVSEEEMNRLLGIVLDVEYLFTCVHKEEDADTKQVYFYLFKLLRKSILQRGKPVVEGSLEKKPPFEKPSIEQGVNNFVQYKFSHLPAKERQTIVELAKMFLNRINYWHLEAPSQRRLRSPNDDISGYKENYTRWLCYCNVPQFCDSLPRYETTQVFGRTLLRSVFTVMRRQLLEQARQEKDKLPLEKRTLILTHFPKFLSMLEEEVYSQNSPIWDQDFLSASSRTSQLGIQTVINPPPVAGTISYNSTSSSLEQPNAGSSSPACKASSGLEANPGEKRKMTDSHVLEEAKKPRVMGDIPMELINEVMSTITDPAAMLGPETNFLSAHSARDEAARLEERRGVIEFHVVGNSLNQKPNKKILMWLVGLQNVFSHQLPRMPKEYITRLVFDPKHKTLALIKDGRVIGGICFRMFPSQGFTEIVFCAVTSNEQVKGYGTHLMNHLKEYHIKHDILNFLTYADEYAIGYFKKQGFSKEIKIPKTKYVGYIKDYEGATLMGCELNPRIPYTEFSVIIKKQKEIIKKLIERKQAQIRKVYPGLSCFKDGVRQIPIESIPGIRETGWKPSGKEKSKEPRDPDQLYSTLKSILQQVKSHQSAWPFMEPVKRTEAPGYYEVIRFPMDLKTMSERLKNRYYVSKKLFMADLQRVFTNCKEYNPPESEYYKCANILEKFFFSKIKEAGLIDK

[7] = target: T4, Histone acetyltransferase KAT2B; test: Inhibition of full length recombinant human FLAG-tagged PCAF expressed in baculovirus expression system using histone substrate incubated for 10 mins by radiometric gel assay
Target sequence in this assay (Q92831 whole entry): as above

[8] = target: T1, Histone acetyltransferase p300; test: Inhibition of full length recombinant human FLAG-tagged p300 expressed in baculovirus expression system using histone substrate incubated for 10 mins by radiometric gel assay
[9] = target: T1, Histone acetyltransferase p300; test: Inhibition of recombinant full length p300 (unknown origin) using N-terminal H4-20 peptide substrate incubated for 7 mins by radiometric gel assay in presence of [14C]acetyl-CoA
[10] = target: T1, Histone acetyltransferase p300; test: Inhibition of recombinant p300 catalytic domain (unknown origin) using N-terminal histone H3 substrate by radiometric filter binding assay in presence of [3H]acetyl-CoA
[11] = target: T1, Histone acetyltransferase p300; test: Inhibition of recombinant p300 catalytic domain (unknown origin) using N-terminal histone H3 substrate at 52 uM by orthogonal fluorescence assay in presence of [3H]acetyl-CoA relative to control
[12] = target: T2, Histone acetyltransferase KAT5; test: Inhibition of recombinant human GFP-tagged TIP60 expressed in chicken embryo DT40 cells using histone substrate at 500 uM incubated for 1 hr followed by ionizing radiation treatment by immunosorbent gel assay relative to control; type: cell-based
Target sequence in this assay (Q92993 whole entry, looked up): as the sequence (Q92993 whole entry) above

[13] = target: Histone acetyltransferase KAT7 (Homo sapiens) (UniProt O95251); test: Inhibition of HBO1 (unknown origin) using N-terminal histone H3 substrate at 100 uM by […] in presence of [3H]acetyl-CoA relative to control
[14] = target: T5, Histone acetyltransferase KAT2A (Homo sapiens, UniProt Q92830); test: Inhibition of GCN5 (unknown origin) using N-terminal histone H3 substrate by radiometric filter binding based phenotypic screen in presence of [3H]acetyl-CoA
[15] = target: T2, Histone acetyltransferase KAT5; test: Inhibition of TIP60 (unknown origin) using N-terminal histone H3 substrate at 100 uM by […] in presence of [3H]acetyl-CoA relative to control
Target sequence in this assay (Q92993 whole entry, looked up): as the sequence (Q92993 whole entry) above

[16] = target: T1, Histone acetyltransferase p300; test: Inhibition of recombinant p300 catalytic domain (unknown origin) using N-terminal histone H3 substrate by radiometric filter binding based phenotypic screen in presence of [3H]acetyl-CoA
[17] = target: T1, Histone acetyltransferase p300; test: Inhibition of recombinant p300 catalytic domain (unknown origin) using N-terminal histone H3 substrate by orthogonal fluorescence assay in presence of [3H]acetyl-CoA
[18] = target: T3, CREB-binding protein; test: Inhibition of CBP (unknown origin) using N-terminal histone H3 substrate at 100 uM by radiometric filter binding based phenotypic screen in presence of [3H]acetyl-CoA relative to control
[19] = target: T4, Histone acetyltransferase KAT2B; test: Inhibition of PCAF (unknown origin) using N-terminal histone H3 substrate by radiometric filter binding based phenotypic screen in presence of [3H]acetyl-CoA
Target sequence in this assay (Q92831 whole entry): as the sequence (Q92831 whole entry) above

[20] = target: T4, Histone acetyltransferase KAT2B; test: Inhibition of recombinant PCAF (unknown origin) expressed in baculovirus expression system using histone substrate at 50 uM after 10 mins by liquid scintillation counting method in presence of [3H]acetyl-CoA relative to control
Target sequence in this assay (Q92831 whole entry, looked up): as the sequence (Q92831 whole entry) above

[21] = target: T1, Histone acetyltransferase p300; test: Inhibition of recombinant p300 (unknown origin) expressed in baculovirus expression system using histone substrate at 50 uM after 10 mins by liquid scintillation counting method in presence of [3H]acetyl-CoA relative to control
[22] = target: T5, Histone acetyltransferase KAT2A; test: Inhibition of recombinant human GCN5 catalytic domain (497 to 663 residues) expressed in Escherichia coli using histone H3 (5 to 23 residues) as substrate at 800 uM after 1 hr by liquid scintillation counting method in presence of [3H]acetyl-CoA relative to control
Target sequence in this assay (Q92830 2-837 limits assumed): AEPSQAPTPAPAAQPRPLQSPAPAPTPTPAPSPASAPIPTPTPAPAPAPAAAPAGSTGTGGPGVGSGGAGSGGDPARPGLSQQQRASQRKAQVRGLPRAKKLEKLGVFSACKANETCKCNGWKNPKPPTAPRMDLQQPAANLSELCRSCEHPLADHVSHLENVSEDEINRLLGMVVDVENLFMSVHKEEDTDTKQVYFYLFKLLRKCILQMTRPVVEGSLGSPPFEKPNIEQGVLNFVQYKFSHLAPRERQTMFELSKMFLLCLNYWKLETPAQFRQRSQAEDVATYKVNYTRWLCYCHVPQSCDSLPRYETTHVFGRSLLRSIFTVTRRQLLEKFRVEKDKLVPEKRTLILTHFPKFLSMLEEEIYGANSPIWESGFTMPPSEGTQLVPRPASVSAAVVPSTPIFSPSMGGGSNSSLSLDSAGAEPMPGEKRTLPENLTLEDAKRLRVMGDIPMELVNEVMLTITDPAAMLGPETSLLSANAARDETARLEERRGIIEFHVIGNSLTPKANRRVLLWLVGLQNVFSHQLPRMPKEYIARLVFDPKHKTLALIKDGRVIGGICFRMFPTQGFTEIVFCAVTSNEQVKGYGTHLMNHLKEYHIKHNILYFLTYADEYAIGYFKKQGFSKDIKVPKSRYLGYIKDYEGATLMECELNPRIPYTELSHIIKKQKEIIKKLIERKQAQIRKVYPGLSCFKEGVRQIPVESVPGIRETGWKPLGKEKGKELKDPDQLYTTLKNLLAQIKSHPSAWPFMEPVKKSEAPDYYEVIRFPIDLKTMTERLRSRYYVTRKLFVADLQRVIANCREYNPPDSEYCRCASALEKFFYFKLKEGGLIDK

[23] = target: T4, Histone acetyltransferase KAT2B; test: Inhibition of recombinant human PCAF catalytic domain (492 to 658 residues) expressed in Escherichia coli using histone H3 (5 to 23 residues) as substrate at 800 uM after 1 hr by liquid scintillation counting method in presence of [3H]acetyl-CoA relative to control
Target sequence in this assay (Q92831 whole entry, looked up): as the sequence (Q92831 whole entry) above

[24] = target: Histone acetyltransferase KAT6A (Homo sapiens) (UniProt Q92794); test: Inhibition of human MOZ using histone H3 substrate at 10 uM incubated for 2 to 4 mins by SDS-PAGE based autoradiography in presence of [14C]acetyl-CoA relative to control
[25] = target: T4, Histone acetyltransferase KAT2B; test: Inhibition of PCAF (unknown origin) using H4-15 peptide substrate at 10 uM incubated for 10 mins by radiometric filter binding assay in presence of [14C]acetyl-CoA relative to control
Target sequence in this assay (Q92831 whole entry, looked up): as the sequence (Q92831 whole entry) above

[26] = tested on: Saccharomyces cerevisiae; test: Inhibition of yeast RTT109 using histone H3 substrate at 10 uM incubated for 2 to 4 mins by SDS-PAGE based autoradiography in presence of [14C]acetyl-CoA relative to control
[27] = tested on: Saccharomyces cerevisiae; test: Inhibition of yeast GCN5 using histone H3 substrate at 10 uM incubated for 2 to 4 mins by SDS-PAGE based autoradiography in presence of [14C]acetyl-CoA relative to control
[28] = tested on: Saccharomyces cerevisiae; test: Inhibition of yeast YJW458 TAP-tagged SAS2 expressed in Escherichia coli BL21-CodonPlus(DE3)-RIL cells using histone H3 as substrate at 10 uM incubated for 2 to 4 mins by SDS-PAGE based autoradiography in presence of [14C]acetyl-CoA relative to control
[29] = target: T4, Histone acetyltransferase KAT2B; test: Inhibition of recombinant human PCAF catalytic domain (492 to 658 residues) using histone H3 peptide substrate at 100 uM after 1 hr by liquid scintillation counting method in presence of [3H]acetyl-CoA relative to control
Target sequence in this assay (Q92831 whole entry, looked up): as the sequence (Q92831 whole entry) above

[30] = target: T1, Histone acetyltransferase p300; test: Inhibition of recombinant human p300 catalytic domain (1284 to 1673 residues) using histone H3 peptide substrate at 100 uM after 1 hr by liquid scintillation counting method in presence of [3H]acetyl-CoA relative to control
[31] = target: T4, Histone acetyltransferase KAT2B; test: Inhibition of recombinant PCAF (unknown origin) expressed in baculovirus expression system using histone substrate after 10 mins by liquid scintillation counting method in presence of [3H]acetyl-CoA
Target sequence in this assay (Q92831 whole entry): as above

[32] = target: T1, Histone acetyltransferase p300; test: Inhibition of full length recombinant His6-tagged p300 (unknown origin) expressed in baculovirus expression system using histone substrate after 10 mins by liquid scintillation counting method in presence of [3H]acetyl-CoA
[33] = target: T2, Histone acetyltransferase KAT5; test: Inhibition of TIP60 (unknown origin) expressed in bacterial system using histone substrate at 25 uM after 10 mins by liquid scintillation counting method in presence of [3H]acetyl-CoA relative to control
Target sequence in this assay (Q92993 whole entry, looked up): as the sequence (Q92993 whole entry) above

[34] = target: T1, Histone acetyltransferase p300; test: Inhibition of full length recombinant His6-tagged p300 (unknown origin) expressed in baculovirus expression system using histone substrate at 25 uM after 10 mins by liquid scintillation counting method in presence of [3H]acetyl-CoA relative to control
[35] = target: T4, Histone acetyltransferase KAT2B; test: Inhibition of full length recombinant FLAG-tagged PCAF (unknown origin) expressed in baculovirus expression system using histone substrate after 10 mins by liquid scintillation counting method in presence of [3H]acetyl-CoA
Target sequence in this assay (Q92831 whole entry): as the sequence (Q92831 whole entry) above

[36] = target: T1, Histone acetyltransferase p300; test: Inhibition of full length recombinant His6-tagged p300 (unknown origin) expressed in baculovirus infected sf21 cells using histone substrate after 10 mins by liquid scintillation counting method in presence of [3H]acetyl-CoA
[37] = target: T1, Histone acetyltransferase p300; test: Activation of full length recombinant human His6-tagged p300 expressed in baculovirus infected Sf21 cells using N-terminal H3 peptide substrate at 275 uM after 10 mins by radiometric filter binding assay in presence of [3H]acetyl-CoA relative to control
[38] = target: T1, Histone acetyltransferase p300; test: Inhibition of full length recombinant human His6-tagged p300 expressed in baculovirus infected Sf21 cells using N-terminal H3 peptide substrate after 10 mins by radiometric filter binding assay in presence of [3H]acetyl-CoA

T1 sequence (Q09472 whole entry, the tested form may be a part): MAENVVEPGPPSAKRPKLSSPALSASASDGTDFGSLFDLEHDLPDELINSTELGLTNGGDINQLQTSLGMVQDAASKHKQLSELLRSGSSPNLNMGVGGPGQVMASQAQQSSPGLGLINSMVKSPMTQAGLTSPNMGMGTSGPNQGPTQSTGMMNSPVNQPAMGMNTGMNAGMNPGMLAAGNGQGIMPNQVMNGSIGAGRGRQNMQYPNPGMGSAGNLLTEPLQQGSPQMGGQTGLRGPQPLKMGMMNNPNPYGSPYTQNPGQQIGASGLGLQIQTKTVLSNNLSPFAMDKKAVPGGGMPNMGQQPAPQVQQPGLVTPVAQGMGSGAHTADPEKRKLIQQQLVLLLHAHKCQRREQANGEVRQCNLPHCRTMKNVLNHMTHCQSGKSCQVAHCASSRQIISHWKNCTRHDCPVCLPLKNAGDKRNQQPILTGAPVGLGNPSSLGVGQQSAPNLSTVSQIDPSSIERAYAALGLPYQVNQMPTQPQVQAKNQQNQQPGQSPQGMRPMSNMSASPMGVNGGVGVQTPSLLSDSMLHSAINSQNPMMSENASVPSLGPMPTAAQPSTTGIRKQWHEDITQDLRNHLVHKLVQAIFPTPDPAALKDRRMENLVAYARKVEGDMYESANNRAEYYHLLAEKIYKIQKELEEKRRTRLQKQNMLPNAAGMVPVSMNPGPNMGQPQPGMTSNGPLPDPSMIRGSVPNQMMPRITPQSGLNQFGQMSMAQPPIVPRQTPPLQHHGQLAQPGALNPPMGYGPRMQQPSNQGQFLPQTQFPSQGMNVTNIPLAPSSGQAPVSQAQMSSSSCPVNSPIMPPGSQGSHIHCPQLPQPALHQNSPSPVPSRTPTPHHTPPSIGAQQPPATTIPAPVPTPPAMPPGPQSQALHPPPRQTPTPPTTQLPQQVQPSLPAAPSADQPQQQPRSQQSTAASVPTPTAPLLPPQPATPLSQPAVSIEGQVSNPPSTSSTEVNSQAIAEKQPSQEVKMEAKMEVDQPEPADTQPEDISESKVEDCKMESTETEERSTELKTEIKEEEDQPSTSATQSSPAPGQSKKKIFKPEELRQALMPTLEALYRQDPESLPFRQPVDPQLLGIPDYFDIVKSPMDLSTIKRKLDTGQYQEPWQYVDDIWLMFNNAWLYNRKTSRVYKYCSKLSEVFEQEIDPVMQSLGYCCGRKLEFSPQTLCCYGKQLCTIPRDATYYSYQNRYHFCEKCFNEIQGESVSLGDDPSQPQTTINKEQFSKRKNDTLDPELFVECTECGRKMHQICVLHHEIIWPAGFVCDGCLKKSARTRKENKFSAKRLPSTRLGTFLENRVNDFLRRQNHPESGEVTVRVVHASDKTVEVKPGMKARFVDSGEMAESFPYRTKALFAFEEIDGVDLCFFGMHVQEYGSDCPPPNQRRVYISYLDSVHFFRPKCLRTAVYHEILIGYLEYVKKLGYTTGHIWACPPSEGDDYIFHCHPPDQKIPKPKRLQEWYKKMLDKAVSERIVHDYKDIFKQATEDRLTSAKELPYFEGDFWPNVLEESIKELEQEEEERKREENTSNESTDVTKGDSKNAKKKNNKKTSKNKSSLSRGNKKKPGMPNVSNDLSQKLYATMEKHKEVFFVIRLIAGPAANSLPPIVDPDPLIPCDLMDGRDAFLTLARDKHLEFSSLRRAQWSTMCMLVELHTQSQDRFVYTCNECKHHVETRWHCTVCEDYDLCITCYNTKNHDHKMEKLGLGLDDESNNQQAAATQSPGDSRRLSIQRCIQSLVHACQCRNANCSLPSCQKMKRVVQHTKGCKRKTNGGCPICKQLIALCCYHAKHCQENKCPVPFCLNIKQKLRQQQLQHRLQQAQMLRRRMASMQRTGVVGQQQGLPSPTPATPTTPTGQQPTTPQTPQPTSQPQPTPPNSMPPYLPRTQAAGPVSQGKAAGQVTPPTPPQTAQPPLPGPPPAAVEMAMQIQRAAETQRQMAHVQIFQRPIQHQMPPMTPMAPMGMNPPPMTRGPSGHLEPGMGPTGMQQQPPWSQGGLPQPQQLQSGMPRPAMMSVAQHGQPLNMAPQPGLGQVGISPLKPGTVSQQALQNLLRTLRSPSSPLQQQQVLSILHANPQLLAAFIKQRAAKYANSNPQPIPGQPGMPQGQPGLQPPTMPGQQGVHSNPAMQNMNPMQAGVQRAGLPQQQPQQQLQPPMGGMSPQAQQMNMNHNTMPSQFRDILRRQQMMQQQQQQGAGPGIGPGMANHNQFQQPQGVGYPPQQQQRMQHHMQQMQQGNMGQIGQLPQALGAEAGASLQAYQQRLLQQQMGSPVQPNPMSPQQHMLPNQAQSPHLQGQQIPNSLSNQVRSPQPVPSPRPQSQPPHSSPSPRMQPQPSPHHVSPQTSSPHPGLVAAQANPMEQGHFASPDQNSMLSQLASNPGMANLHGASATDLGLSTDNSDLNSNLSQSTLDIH

## CC(C)(C)OC(=O)NCCCCCNC(=O)CSCCNC(=O)CCNC(=O)[C@H](O)C(C)(C)COP(=O)(O)OP(=O)(O)OC[C@H]1O[C@@H](n2cnc3c(N)ncnc32)[C@H](O)[C@@H]1OP(=O)(O)O
[1]
  IC50: 70 nM

## N=C(N)NCCC[C@@H]1NC(=O)/C(=C/c2ccc(O)c(OCC[C@H](NC(=O)C[C@](O)(CC(=O)N[C@@H](CC(=O)O)C(=O)O)C(=O)O)C(=O)O)c2)NC1=O
[2]
  IC50: 11 nM

## O=C(O[C@@H]1Cc2c(O)cc(O)cc2O[C@@H]1c1cc(O)c(O)c(O)c1)c1cc(O)c(O)c(O)c1 [EPIGALOCATECHIN GALLATE]
[3]
  IC50: 70 µM
[4]
  IC50: 30 µM
[5]
  IC50: 50 µM
[6]
  IC50: 60 µM

## CC(=O)N[C@@H](CCCCNC(=O)CSCCNC(=O)CCNC(=O)[C@H](O)C(C)(C)COP(=O)(O)OP(=O)(O)OC[C@H]1O[C@@H](n2cnc3c(N)ncnc32)[C@H](O)[C@@H]1OP(=O)(O)O)C(N)=O
[7]
  IC50: 200 µM
[8]
  IC50: 0.5 µM
[2]
  IC50: 3.2 nM
[9]
  IC50: 50 nM

## CNC(=O)[C@H](C)NC(=O)[C@H](CCCNC(=N)N)NC(=O)[C@@H](NC(=O)[C@H](CCCCN)NC(=O)[C@H](CCC(N)=O)NC(=O)[C@@H](NC(=O)[C@H](C)NC(=O)[C@H](CCCNC(=N)N)NC(=O)[C@H](CC(C)C)NC(=O)[C@H](CO)NC(=O)[C@@H](NC(=O)CNC(=O)CNC(=O)N[C@H](CCCCNC(=O)CSCCNC(=O)CCNC(=O)[C@@H](O)C(C)(C)COP(=O)(O)OP(=O)(O)OC[C@@H]1O[C@H](n2cnc3c(N)ncnc32)[C@@H](O)[C@H]1OP(=O)(O)O)C(=O)N[C@@H](C)C(=O)N1CCC[C@@H]1C(=O)N[C@H](CCCNC(=N)N)C(=O)N[C@H](CCCCN)C(=O)N[C@H](CCC(N)=O)C(=O)N[C@@H](CC(C)C)C(=O)O)[C@H](C)O)[C@H](C)O)[C@H](C)O
[7]
  IC50: 0.3 µM
[8]
  IC50: 200 µM

## CCCCCCCCCCCCCCCc1cccc(O)c1C(=O)O [ANACARDIC ACID]
[10]
  IC50: 4.15 µM
[11]
  %max: 60%

## N=C(N)NCCC[C@@H]1NC(=O)/C(=C/c2ccc(O)c(OCC[C@H](NC(=O)C[C@](O)(CC(=O)O)C(=O)O)C(=O)O)c2)NC1=O
[2]
  IC50: 22 nM

## O=C(O)Cn1nnc(-c2ccc(CN(CCCCOc3ccc(CN4CCCC4)cc3)CCc3ccccc3)cc2)n1
[12]
  inhibition: 60%

## COc1ccc(S(=O)(=O)ON=C2C=C(C)C(=O)C(C)=C2)cc1
[13]
  inhibition: 1%
[14]
  IC50: 33.9 µM
[15]
  inhibition: 2%
[16]
  IC50: 128 µM
[17]
  IC50: 1980 nM
[18]
  inhibition: 32%
[19]
  IC50: 34.7 µM

## COc1cc(/C=C/c2cc(/C=C/c3ccc(O)c(OC)c3)n(-c3ccc(C(=O)O)cc3)n2)ccc1O
[20]
  inhibition: > 50%
[21]
  inhibition: > 50%

## CC1CC/C(=N/Nc2nc(-c3ccc(Cl)cc3)cs2)C1 (configuration not stated)
[22]
  inhibition: 40%
[23]
  inhibition: 40%

## CC1=NN(c2ccc(C(=O)O)cc2)C(=O)/C1=C\c1ccc(-c2cc(C)c(C)cc2[N+](=O)[O-])o1
[24]
  inhibition: < 10%
[25]
  inhibition: < 10%
[26]
  inhibition: < 10%
[27]
  inhibition: < 10%
[28]
  inhibition: < 10%

## CCCCCCCCCCCCCCC=C(C(=O)OCC)C(=O)OCC
[29]
  inhibition: 37.5%
[30]
  inhibition: 81.2%

## CC1=CC(=O)c2c(O)cccc2C1=O [PLUMBAGIN]
[31]
  IC50: 50 µM
[32]
  IC50: 20 µM

## CCCCCCCCCCCC1=C(O)C(=O)C=C(O)C1=O [EMBELIN]
[33]
  inhibition: 75%
[34]
  inhibition: 75%
[35]
  IC50: 7.2 µM

## COc1ccc(C(=O)C2=C3OC(C)(C)[C@@H](CC=C(C)C)C[C@@]34C[C@@H](/C=C\C(C)C)C(C)(C)[C@@](CC=C(C)C)(C2=O)C4=O)cc1O
[36]
  IC50: 5 µM

## CCCCCCCCCCCCCCCc1cccc(OCC)c1C(=O)Nc1ccc(Cl)c(C(F)(F)F)c1
[37]
  Emax: 400%

## C=C(C)[C@@H](/C=C/C(C)C)C[C@@]12C[C@@H](/C=C\C(C)C)C(C)(C)[C@@](CC=C(C)C)(C(=O)C(C(=O)c3ccc(O)c(O)c3)=C1O)C2=O
[38]
  IC50: 7 µM
